The molecules below were run on Escherichia coli (ATCC25922) or Staphylococcus aureus (ATCC25923) (assay: Antibacterial MIC, microdilution method in Mueller-Hinton medium). Conditions: Escherichia coli, 18 h, MIC in E. coli or S. aureus; two-fold serial dilutions 64 to 0.5 μg/ml in duplicate; 18 hours of incubation at 35° C.; read-out: Potency (MIC).
Format: cell-based
Method in brief: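 Read after 18 h incubation at 35° C, MIC is the lowest compound level that blocked growth. Compounds were tested in duplicate over 64–0.5 μg/ml two-fold dilutions using Mueller-Hinton microdilution per NCCLS standard.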

MIC [µg/mL] | Structure (SMILES)
< 64 | O=S(=O)(Nc1ccc2cn[nH]c2c1)c1ccc(Nc2nc(N3CCCCC3)nc(N3CCN(c4ccncc4)CC3)n2)cc1 [4-[4-((3S,5R)-3,5-DSiamino-piperidin-1-yl)-6-(4-pyridin-4-yl-piperazin-1-yl)-[1,3,5]triazin-2-ylamino]-N-(1H-indazol-6-yl)-benzenesulfonamide]
> 64 | Cl.Nc1ccc(Nc2nc(N3C[C@H](N)C[C@H](N)C3)nc(N3C[C@H](N)C[C@H](N)C3)n2)cc1 [N-(4-amino-phenyl)-4,6-Biss-((3R,5S)-3,5-diamino-piperidin-1-yl)-[1,3,5]triazine-2-amine]
< 64 | Cc1ccc(C(=O)Nc2ccc(Nc3nc(N4CCN(c5ccncc5)CC4)nc(N4C[C@H](N)C[C@H](N)C4)n3)cc2O)cc1 [N-{4-[4-((3R,5S)-3,5-Diamino-piperidin-1-yl)-6-(4-pyridin-4-yl-piperazin-1-yl)-[1,3,5]triazin-2-ylamino]-2-hydroxy-phenyl}-4-methyl-benzamide]
> 64 | CN(Cc1cccc2ccccc12)c1nc(N2CCCCC2)nc(N2CCCCC2)n1.Cl [N,N-Methyl-naphthalen-1-ylmethyl-4,6-Bis-((3R,5S)-3,5-diamino-piperidin-1-yl)-[1,3,5]triazine-2-amine]
< 64 | CCC(=O)Nc1ccc(Nc2nc(N3C[C@H](N)C[C@H](N)C3)nc(N3C[C@H](N)C[C@H](N)C3)n2)cc1O [N-(3-hydroxy-4-propionylamino-phenyl)-4,6-Bis-((3R,5S)-3,5-diamino-piperidin-1-yl)-[1,3,5]triazine-2-amine]
< 64 | Cc1cc(NC(=O)c2cc3cccc(O)c3cc2O)ccc1Nc1nc(N2C[C@H](N)C[C@H](N)C2)nc(N2C[C@H](N)C[C@H](N)C2)n1 [N-{4-[(3,5-dihydroxy-naphthalene-2-carbonyl)-amino]-2-methyl-phenyl}-4,6-Bis-((3R,5S)-3,5-diamino-piperidin-1-yl)-[1,3,5]triazine-2-amine]
> 64 | Cl.N[C@@H]1C[C@@H](N)CN(c2nc(N3CCC4CCCCC4C3)nc(N3C[C@H](N)C[C@H](N)C3)n2)C1 (stereo partly drawn) [2,4-Biss-((3R,5S)-3,5-diamino-piperidin-1-yl)-6-(4-p-tolyl-piperazin-1-yl)-[1,3,5]triazine]

Same assay, conditions: Escherichia coli, 18 h, read-out: Potency (MIC)

Structure (SMILES) | MIC [µg/mL]
CC(=O)c1ccc(Nc2nc(N3C[C@H](N)C[C@H](N)C3)nc(N3C[C@@H](N)[C@@H](N)C3)n2)cc1 [1-{4-[4-((3R,5S)-3,5-Diamino-piperidin-1-yl)-6-((3R,4S)-3,4-diamino-pyrrolidin-1-yl)-[1,3,5]triazin-2-ylamino]-phenyl}-ethanone] | > 64
N[C@@H]1C[C@H](N)CN(c2nc(Nc3ccc(C(=O)Nc4ccc(F)c(F)c4)c(O)c3)nc(N3C[C@H](N)C[C@H](N)C3)n2)C1 [N-[4-(3,4-difluoro-phenylcarbamoyl)-3-hydroxy-phenyl]-4,6-Bis-((3R,5S)-3,5-diamino-piperidin-1-yl)-[1,3,5]triazine-2-amine] | < 16
NC[C@@H]1C[C@H](N)CN1c1nc(Nc2ccc(NC(=O)c3ccc4ccccc4c3O)cc2)nc(N2C[C@H](N)C[C@H](N)C2)n1 [1-Hydroxy-naphthalene-2-carboxylic acid {4-[4-((2S,4S)-4-amino-2-aminomethyl-pyrrolidin-1-yl)-6-((3R,5S)-3,5-diamino-piperidin-1-yl)-[1,3,5]triazine-2-ylamino]-phenyl}-amide] | < 16
N[C@@H]1C[C@H](N)CN(c2nc(Nc3ccc(C(=O)CC(=O)Nc4ccc(SC(F)(F)F)cc4)cc3)nc(N3C[C@H](N)C[C@H](N)C3)n2)C1 [N-{4-[2-(4-trifluoromethylsulfanyl-phenylcarbamoyl)-acetyl]-phenyl}-4,6-Bis-((3R,5S)-3,5-diamino-piperidin-1-yl)-[1,3,5]triazine-2-amine] | < 16
N[C@@H]1C[C@H](N)CN(c2nc(Nc3ccc(NC(=O)c4ccc(O)cc4O)cc3)nc(N3C[C@H](N)C[C@H](N)C3)n2)C1 [N-[4-(2,4-dihydroxy-benzoylamino)-phenyl]-4,6-Bis-((3R,5S)-3,5-diamino-piperidin-1-yl)-[1,3,5]triazine-2-amine] | < 16
N[C@@H]1C[C@H](N)CN(c2nc(Nc3ccc([N+](=O)[O-])c(Cl)c3)nc(N3C[C@H](N)C[C@H](N)C3)n2)C1 [N-(3-chloro-4-nitro-phenyl)-4,6-Bis-((3R,5S)-3,5-diamino-piperidin-1-yl)-[1,3,5]triazine-2-amine] | < 16
NC[C@@H]1C[C@H](N)CN1c1nc(Nc2ccc(NC(=O)c3ccc(Cl)cc3O)c(O)c2)nc(N2C[C@H](N)C[C@H](N)C2)n1 [N-{4-[4-((2S,4S)-4-Amino-2-aminomethyl-pyrrolidin-1-yl)-6-((3R,5S)-3,5-diamino-piperidin-1-yl)-[1,3,5]triazin-2-ylamino]-2-hydroxy-phenyl}-4-chloro-2-hydroxy-benzamide] | < 16
N[C@@H]1C[C@H](N)CN(c2nc(Nc3cccc(I)c3)nc(N3C[C@H](N)C[C@H](N)C3)n2)C1 [N-(3-Iodo-phenyl)-4,6-Bis-((3R,5S)-3,5-diamino-piperidin-1-yl)-[1,3,5]triazine-2-amine] | < 64
N[C@@H]1C[C@H](N)CN(c2nc(Nc3ccc(C(=O)CC(=O)Nc4ccc(Cl)cc4)cc3)nc(N3C[C@H](N)C[C@H](N)C3)n2)C1 [N-{4-[2-(4-chloro-phenylcarbamoyl)-acetyl]-phenyl}-4,6-Bis-((3R,5S)-3,5-diamino-piperidin-1-yl)-[1,3,5]triazine-2-amine] | < 16
NC[C@@H]1C[C@H](CN)CN(c2nc(Nc3ccc(NC(=O)c4ccc(Cl)cc4)c(O)c3)nc(N3C[C@H](N)C[C@H](N)C3)n2)C1 [N-{4-[4-((3R,5S)-3,5-Bis-(aminomethyl)-piperidin-1-yl)-6-((3R,5S)-3,5-diamino-piperidin-1-yl)-[1,3,5]triazin-2-ylamino]-2-hydroxy-phenyl}-4-chloro-benzamide] | < 16
N[C@@H]1C[C@H](N)CN(c2nc(Nc3ccc(S(=O)(=O)Nc4ccccn4)cc3)nc(N3C[C@H](N)C[C@H](N)C3)n2)C1 [N-[4-(pyridin-2-ylsulfamoyl)-phenyl]-4,6-Bis-((3R,5S)-3,5-diamino-piperidin-1-yl)-[1,3,5]triazine-2-amine] | > 64
N[C@@H]1C[C@H](N)CN(c2nc(Nc3ccc(C(=O)CC(=O)Nc4cccc(SC(F)(F)F)c4)cc3)nc(N3C[C@H](N)C[C@H](N)C3)n2)C1 [N-{4-[2-(3-trifluoromethylsulfanyl-phenylcarbamoyl)-acetyl]-phenyl}-4,6-Bis-((3R,5S)-3,5-diamino-piperidin-1-yl)-[1,3,5]triazine-2-amine] | < 16
CCn1c(-c2cccc(Nc3nc(N4C[C@H](N)C[C@H](N)C4)nc(N4C[C@H](N)C[C@H](N)C4)n3)c2)cc(=O)n1-c1ccccc1 [N-[3-(2-ethyl-5-oxo-1-phenyl-2,5-dihydro-1H-pyrazol-3-yl)-phenyl]-4,6-Bis-((3R,5S)-3,5-diamino-piperidin-1-yl)-[1,3,5]triazine-2-amine] | > 64
N[C@@H]1C[C@H](N)CN(c2nc(Nc3ccc(NC(=O)c4cccc([N+](=O)[O-])c4O)cc3O)nc(N3C[C@H](N)C[C@H](N)C3)n2)C1 [N-[2-hydroxy-4-(2-hydroxy-3-nitro-benzoylamino)-phenyl]-4,6-Bis-((3R,5S)-3,5-diamino-piperidin-1-yl)-[1,3,5]triazine-2-amine] | < 64
Nc1cccc(NC(=O)CC(=O)c2ccc(Nc3nc(N4C[C@H](N)C[C@H](N)C4)nc(N4C[C@H](N)C[C@H](N)C4)n3)cc2)c1 [N-{4-[2-(3-amino-phenylcarbamoyl)-acetyl]-phenyl}-4,6-Bis-((3R,5S)-3,5-diamino-piperidin-1-yl)-[1,3,5]triazine-2-amine] | > 64
N[C@@H]1C[C@H](N)CN(c2nc(Nc3ccc(S(=O)(=O)Nc4ccc5cn[nH]c5c4)cc3)nc(N3C[C@H](O)C[C@@H](O)C3)n2)C1 [4-[4-((3S,5R)-3,5-Diamino-piperidin-1-yl)-6-((3R,5R)-3,5-dihydroxy-piperidin-1-yl)-[1,3,5]triazin-2-ylamino]-N-(1H-indazol-6-yl)-benzenesulfonamide] | > 64
N[C@@H]1C[C@H](N)CN(c2nc(Nc3cc(Cl)c(NC(=O)c4ccc(Cl)cc4O)c(Cl)c3)nc(N3C[C@H](N)C[C@H](N)C3)n2)C1 [N-[3,5-dichloro-4-(4-chloro-2-hydroxy-benzoylamino)-phenyl]-4,6-Bis-((3R,5S)-3,5-diamino-piperidin-1-yl)-[1,3,5]triazine-2-amine] | < 16
N[C@@H]1C[C@H](N)CN(c2nc(Nc3ccc(C(=O)Nc4ccc(SC(F)(F)F)cc4)c(O)c3)nc(N3C[C@H](N)C[C@H](N)C3)n2)C1 [N-[3-hydroxy-4-(4-trifluoromethylsulfanyl-phenylcarbamoyl)-phenyl]-4,6-Bis-((3R,5S)-3,5-diamino-piperidin-1-yl)-[1,3,5]triazine-2-amine] | < 64
N[C@@H]1C[C@H](N)CN(c2nc(Nc3ccc4c(c3)-c3ccccc3C4=O)nc(N3CCC[C@@H](O)C3)n2)C1 [3-[4-((3S,5R)-3,5-Diamino-piperidin-1-yl)-6-((R)-3-hydroxy-piperidin-1-yl)-[1,3,5]triazin-2-ylamino]-fluoren-9-one] | < 64
Cc1cc(=O)oc2cc(Nc3nc(NCCN)nc(N4C[C@H](N)C[C@H](N)C4)n3)ccc12 [7-[4-(2-Amino-ethylamino)-6-((3R,5S)-3,5-diamino-piperidin-1-yl)-[1,3,5]triazin-2-ylamino]-4-methyl-chromen-2-one] | > 64
Cc1ccc(C(=O)Nc2ccc(Nc3nc(N4C[C@H](N)C[C@H](N)C4)nc(N4C[C@H](N)C[C@H](N)C4)n3)c(C)c2)c(O)c1 [N-[4-(2-hydroxy-4-methyl-benzoylamino)-2-methyl-phenyl]-4,6-Bis-((3R,5S)-3,5-diamino-piperidin-1-yl)-[1,3,5]triazine-2-amine] | < 64
COc1ccc(Nc2nc(N3C[C@H](N)C[C@H](N)C3)nc(N3C[C@H](N)C[C@H](N)C3)n2)c([N+](=O)[O-])c1 [N-(4-methoxy-2-nitro-phenyl)-4,6-Bis-((3R,5S)-3,5-diamino-piperidin-1-yl)-[1,3,5]triazine-2-amine] | > 64

Reference: US7223759B2, “Antibacterial 3,5-diaminopiperidine-substituted aromatic and heteroaromatic compounds” (Anadys Pharmaceuticals, Inc., priority 2003, dated 2007)
